From ChEMBL document CHEMBL3525949, “Role of organic anion-transporting polypeptides for cellular mesalazine (5-aminosalicylic acid) uptake” (Drug Metab Dispos, 2011)
Values belong to the molecule of their own block, whether it stands above or below them.

Tests used:
Assay type in all cases: ADME, cell-based
[1] = target: T1, Solute carrier organic anion transporter family member 1B3 (Homo sapiens, UniProt Q9NPD5); assay: Drug uptake in human OATP1B3 expressed HEK293 cells assessed as net uptake measured per mg of protein
T1 sequence (Q9NPD5 whole entry): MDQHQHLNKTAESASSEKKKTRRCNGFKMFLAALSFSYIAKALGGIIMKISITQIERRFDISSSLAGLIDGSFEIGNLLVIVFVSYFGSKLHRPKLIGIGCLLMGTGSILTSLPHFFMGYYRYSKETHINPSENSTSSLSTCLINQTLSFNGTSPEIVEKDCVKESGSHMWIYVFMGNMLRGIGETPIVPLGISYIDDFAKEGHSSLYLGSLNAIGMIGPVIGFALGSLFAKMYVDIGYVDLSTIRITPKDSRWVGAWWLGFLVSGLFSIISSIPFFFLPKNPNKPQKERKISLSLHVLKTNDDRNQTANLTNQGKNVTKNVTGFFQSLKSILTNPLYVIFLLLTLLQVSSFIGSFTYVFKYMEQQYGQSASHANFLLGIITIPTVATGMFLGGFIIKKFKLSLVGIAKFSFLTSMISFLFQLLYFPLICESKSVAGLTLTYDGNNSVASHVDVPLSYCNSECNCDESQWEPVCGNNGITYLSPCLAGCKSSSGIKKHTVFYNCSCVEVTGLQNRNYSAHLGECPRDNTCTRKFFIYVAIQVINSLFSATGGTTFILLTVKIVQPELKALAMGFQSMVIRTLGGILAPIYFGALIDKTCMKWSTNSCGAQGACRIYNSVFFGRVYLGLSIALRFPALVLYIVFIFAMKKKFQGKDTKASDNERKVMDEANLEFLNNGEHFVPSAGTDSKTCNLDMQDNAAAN

[2] = target: T2, OATP1B3 (Homo sapiens, UniProt Q9NPD5); assay: Drug uptake in human OATP1B3 expressed HEK293 cells at 20 uM relative to control cells; details: HEK293 cells expressing human OATP1B3, read-out: FC
T2 sequence (Q9NPD5 whole entry): T1 sequence (Q9NPD5 whole entry)

[3] = target: T3, Solute carrier organic anion transporter family member 2B1 (Homo sapiens, UniProt O94956); assay: Inhibition of human OATP2B1 expressed HEK293 cells assessed as inhibition of [3H]sulfobromophthalein uptake by liquid scintillation counting
T3 sequence (O94956 whole entry): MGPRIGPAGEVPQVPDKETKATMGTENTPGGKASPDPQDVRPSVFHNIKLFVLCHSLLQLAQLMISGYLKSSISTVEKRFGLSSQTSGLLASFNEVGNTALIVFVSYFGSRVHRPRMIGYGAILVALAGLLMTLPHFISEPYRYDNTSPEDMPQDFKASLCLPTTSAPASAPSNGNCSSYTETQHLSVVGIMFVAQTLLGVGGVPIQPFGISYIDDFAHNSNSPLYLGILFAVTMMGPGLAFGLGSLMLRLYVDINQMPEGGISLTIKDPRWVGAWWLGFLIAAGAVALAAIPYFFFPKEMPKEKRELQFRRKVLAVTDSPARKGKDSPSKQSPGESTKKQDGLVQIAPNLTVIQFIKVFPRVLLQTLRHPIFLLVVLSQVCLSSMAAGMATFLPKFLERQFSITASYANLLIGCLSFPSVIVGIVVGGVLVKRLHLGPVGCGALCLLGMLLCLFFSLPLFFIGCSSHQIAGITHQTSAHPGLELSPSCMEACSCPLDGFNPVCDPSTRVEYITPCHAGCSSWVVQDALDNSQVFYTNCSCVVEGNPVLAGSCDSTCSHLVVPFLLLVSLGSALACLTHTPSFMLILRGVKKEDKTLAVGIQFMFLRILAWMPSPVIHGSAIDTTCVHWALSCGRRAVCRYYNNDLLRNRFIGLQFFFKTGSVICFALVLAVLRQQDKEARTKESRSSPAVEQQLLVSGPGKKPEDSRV

[4] = target: T4, Solute carrier organic anion transporter family member 1A2 (Homo sapiens, UniProt P46721); assay: Inhibition of human OATP1A2 expressed HEK293 cells assessed as inhibition of [3H]sulfobromophthalein uptake by liquid scintillation counting
T4 sequence (P46721 whole entry): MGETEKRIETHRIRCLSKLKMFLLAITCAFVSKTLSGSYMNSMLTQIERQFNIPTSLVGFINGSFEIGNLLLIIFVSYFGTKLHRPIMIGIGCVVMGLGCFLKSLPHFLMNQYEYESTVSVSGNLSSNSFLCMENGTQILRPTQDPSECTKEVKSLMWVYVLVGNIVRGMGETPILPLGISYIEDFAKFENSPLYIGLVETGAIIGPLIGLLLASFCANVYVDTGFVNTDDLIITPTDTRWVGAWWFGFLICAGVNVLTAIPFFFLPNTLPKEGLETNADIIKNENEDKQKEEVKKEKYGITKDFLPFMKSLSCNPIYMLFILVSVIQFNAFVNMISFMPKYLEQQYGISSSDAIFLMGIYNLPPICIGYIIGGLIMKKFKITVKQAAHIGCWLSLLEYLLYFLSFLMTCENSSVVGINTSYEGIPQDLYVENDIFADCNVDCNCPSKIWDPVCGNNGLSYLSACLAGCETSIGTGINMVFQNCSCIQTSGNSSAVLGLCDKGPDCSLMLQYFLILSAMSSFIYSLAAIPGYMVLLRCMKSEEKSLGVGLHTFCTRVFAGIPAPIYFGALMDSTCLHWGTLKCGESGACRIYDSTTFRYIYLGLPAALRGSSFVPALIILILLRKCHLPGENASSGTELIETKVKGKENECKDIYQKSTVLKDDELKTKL

[5] = tested on: SCLO1B1*1a mutant; assay: Drug uptake in human SCLO1B1*1a mutant expressed HEK293 cells assessed as net uptake; details: HEK293 cells expressing human SCLO1B1*1a mutant
[6] = target: T1, Solute carrier organic anion transporter family member 1B3; assay: Inhibition of human OATP1B3 expressed HEK293 cells assessed as inhibition of [3H]sulfobromophthalein uptake by liquid scintillation counting
[7] = Drug uptake in human SCLO1B1*1a mutant expressed HEK293 cells assessed as net uptake measured per mg of protein
[8] = target: T5, OATP2B1 (Homo sapiens, UniProt O94956); assay: Drug uptake in human OATP2B1 expressed HEK293 cells at 20 uM relative to control cells; details: HEK293 cells expressing human OATP2B1, read-out: FC
T5 sequence (O94956 whole entry): T3 sequence (O94956 whole entry)

[9] = Drug uptake in human SCLO1B1*5 mutant expressed HEK293 cells assessed as net uptake measured per mg of protein
[10] = tested on: SCLO1B1*5 mutant; assay: Drug uptake in human SCLO1B1*5 mutant expressed HEK293 cells assessed as net uptake; details: HEK293 cells expressing human SCLO1B1*5 mutant
[11] = target: T6, Solute carrier organic anion transporter family member 1B1 (Homo sapiens, UniProt Q9Y6L6); assay: Inhibition of human OATP1B1 expressed HEK293 cells assessed as inhibition of [3H]sulfobromophthalein uptake by liquid scintillation counting
T6 sequence (Q9Y6L6 whole entry): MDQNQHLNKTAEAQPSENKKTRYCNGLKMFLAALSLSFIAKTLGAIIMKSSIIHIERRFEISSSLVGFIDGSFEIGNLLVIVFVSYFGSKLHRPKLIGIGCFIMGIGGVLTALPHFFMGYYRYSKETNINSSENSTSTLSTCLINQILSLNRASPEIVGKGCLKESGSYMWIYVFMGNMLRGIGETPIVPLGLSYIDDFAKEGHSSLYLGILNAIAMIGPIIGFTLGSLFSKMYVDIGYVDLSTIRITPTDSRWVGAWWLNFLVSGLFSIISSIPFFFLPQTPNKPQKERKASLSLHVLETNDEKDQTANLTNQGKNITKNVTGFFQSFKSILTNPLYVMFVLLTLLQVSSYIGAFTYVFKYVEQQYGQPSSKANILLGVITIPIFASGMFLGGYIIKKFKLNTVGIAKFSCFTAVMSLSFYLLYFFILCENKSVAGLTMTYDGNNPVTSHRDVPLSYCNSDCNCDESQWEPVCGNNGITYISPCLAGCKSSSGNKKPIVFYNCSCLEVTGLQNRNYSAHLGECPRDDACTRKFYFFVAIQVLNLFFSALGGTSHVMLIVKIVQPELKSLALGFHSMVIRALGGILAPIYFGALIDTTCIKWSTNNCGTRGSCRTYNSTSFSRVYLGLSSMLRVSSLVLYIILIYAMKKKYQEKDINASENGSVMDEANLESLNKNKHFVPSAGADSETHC

[12] = target: T7, OATP1B1 (Homo sapiens, UniProt Q9Y6L6); assay: Drug uptake in human OATP1B1 expressed HEK293 cells at 20 uM relative to control cells; details: HEK293 cells expressing human OATP1B1, read-out: FC
T7 sequence (Q9Y6L6 whole entry): T6 sequence (Q9Y6L6 whole entry)

[13] = tested on: SCLO1B1*1b mutant; assay: Drug uptake in human SCLO1B1*1b mutant expressed HEK293 cells assessed as net uptake; details: HEK293 cells expressing human SCLO1B1*1b mutant
[14] = Drug uptake in human SCLO1B1*15 mutant expressed HEK293 cells assessed as net uptake measured per mg of protein
[15] = target: T2, OATP1B3; assay: Drug uptake in human OATP1B3 expressed HEK293 cells assessed as net uptake; details: HEK293 cells expressing human OATP1B3
[16] = tested on: SCLO1B1*15 mutant; assay: Drug uptake in human SCLO1B1*15 mutant expressed HEK293 cells assessed as net uptake; details: HEK293 cells expressing human SCLO1B1*15 mutant
[17] = Drug uptake in human SCLO1B1*1b mutant expressed HEK293 cells assessed as net uptake measured per mg of protein
[18] = substrate: Nc1ccc(O)c(C(=O)O)c1; assay: Drug uptake in human OATP1B1 expressed HEK293 cells assessed as net uptake
[19] = substrate: Nc1ccc(O)c(C(=O)O)c1; assay: Drug uptake in human OATP2B1 expressed HEK293 cells assessed as net uptake

Vmax [1]: 85.1 pmol/min
uptake ratio at 20 µM [2]: 2.9
inhibition (INH) [3]: Dose-dependent effect
inhibition (INH) [4]: Dose-dependent effect
Km [5]: 55.1 µM
inhibition (INH) [6]: Dose-dependent effect
Vmax [7]: 28.3 pmol/min
uptake ratio at 20 µM [8]: 2
Vmax [9]: 6.1 pmol/min
Km [10]: 24.3 µM
inhibition (INH) [11]: Dose-dependent effect
uptake ratio at 20 µM [12]: 2.7
Km [13]: 16.3 µM
Vmax [14]: 9.3 pmol/min
Km [15]: 77.4 µM
Km [16]: 32.4 µM
Vmax [17]: 3.8 pmol/min
Molecule: Nc1ccc(O)c(C(=O)O)c1 [MESALAMINE]

B1: Solute carrier organic anion transporter family member 1B1 (Homo sapiens) (protein)
chain: T6 sequence (Q9Y6L6 whole entry)
Km [18]: 55.1 µM
Vmax [18]: 2.83e-05 µmol/min

B2: Solute carrier organic anion transporter family member 2B1 (Homo sapiens) (protein)
chain: T3 sequence (O94956 whole entry)
Km [19]: 189 µM
Vmax [19]: 3.72e-05 µmol/min
